# Laboratory results reported in patent US20050026897A1, “Trinuclear copper-based compound and ligand for nucleic acid scission and anticancer treatment” (priority 2001, published 2005).
# Columns and labels:
# [1] = system: OD1+OD2 duplex DNA; assay: Strand scission of duplex-forming OD1+OD2 with MPA, PAGE; type: biochemical
# Experimental: (§1) FIG. 3 is an autoradiogram of a 20% polyacrylamide denaturing gel (7 M urea) showing cleavage products of 100 nM 5′-^32P-labeled OD1 incubated with a compound of formula I and MPA (3-mercaptopropionic acid) for 15 minutes in sodium phosphate (10 mM, pH 7.5) at ambient temperature. Lane 1 depicts OD1 alone. Lane 2 depicts OD1 with 5 μM formula I. Lane 3 depicts OD1 with 5 mM MPA. Lane 4-6 depict 0.5, 1, and 5 μM formula I with 5 mM MPA and OD1. Lane 7 depicts OD1+OD2 with 10 μM formula 1 and 5 mM MPA. Lane 8 depicts A+G sequencing lane.
# (§2) A hairpin forming oligonucleotide (OD1) (SEQ ID NO. 2) (see FIG. 1) was treated with a compound of formula I in the presence of excess MPA and it was then quenched with dithiocarbamic acid. […] Selectivity was reduced to 66% if the concentration of the compound of formula I is increased 10-fold to 5 μm, due in part to an increase in reactivity primarily at A9, T10 and T21 (FIG. 3, lane 6). In the absence of either the thiol or the compound of formula I, no cleavage of OD1 was observed (FIG. 3, lanes 2 and 3). In addition, there was no enhancement of reaction at A9, T10 or T21. […] The persistent specificity for A22 when OD2 is present was likely due to residual hairpin formed in competition with duplex DNA.
# [2] = system: hairpin forming oligonucleotide (OD1); assay: Strand scission of 5'-32P-labeled hairpin oligonucleotide OD1 with MPA, PAGE / phosphorimage analysis; type: biochemical
# Experimental: as §1
# as §2, with “DNA. […]” for “DNA.”
structure (smiles),measurement,setting,value
"[Cu+2].c1cnc2c(c1)ccc1cccnc12.c1cnc2c(c1)ccc1cccnc12 [Cu(OP)2^2+, bis(1,10-phenanthroline)copper]",A22 as target of reaction,[1],not a major target
same,A22 as target of reaction,[2],not a major target
